Laboratory results as given in patent US8716475B2, “2-aminopyrimidine modulators of the histamine H4 receptor” (Janssen Pharmaceutica NV, priority 2007, dated 2014).

Each compound was assayed against T1, human H4 receptor (Homo sapiens, UniProt Q9H3N8) (assay: Binding Assay on Recombinant Human Histamine H4 Receptor). Details: Table 1; [3H] histamine competition binding, membranes of SK-N-MC cells transfected with human H4 receptor; average of results.
T1 construct: expressed in transfected cells
Protocol: Binding Assay on Recombinant Human Histamine H4 Receptor.
Cell pellets from SK-N-MC cells stably or transiently transfected with human H4 receptor were used for the binding assays. Cell pellets were homogenized in 50 mM Tris/5 mM EDTA buffer and supernatants from an 800g spin were collected and recentrifuged at 30,000g for 30 min. Pellets were rehomogenized in 50 mM Tris/5 mM EDTA buffer. […] Compounds were tested in free base, hydrochloride salt, or trifluoroacetic acid form. Nonspecific binding was defined with 100 μM cold histamine. […] Membranes were harvested by rapid filtration using the 96 well Brandel system or a cell harvester using a Whatman GF/C filter or filter plates treated with 0.5% polyethylenimine (PEI), and washed 4 times with ice-cold 50 mM Tris/5 mM EDTA buffer. Filters were then dried, mixed with scintillant and radioactive counts were determined. […] Data marked with an asterisk (*) were obtained by the cell harvester method. Where activity is shown as greater than (>) a particular value, the value is the highest concentration tested.

T1 sequence (Q9H3N8 whole entry): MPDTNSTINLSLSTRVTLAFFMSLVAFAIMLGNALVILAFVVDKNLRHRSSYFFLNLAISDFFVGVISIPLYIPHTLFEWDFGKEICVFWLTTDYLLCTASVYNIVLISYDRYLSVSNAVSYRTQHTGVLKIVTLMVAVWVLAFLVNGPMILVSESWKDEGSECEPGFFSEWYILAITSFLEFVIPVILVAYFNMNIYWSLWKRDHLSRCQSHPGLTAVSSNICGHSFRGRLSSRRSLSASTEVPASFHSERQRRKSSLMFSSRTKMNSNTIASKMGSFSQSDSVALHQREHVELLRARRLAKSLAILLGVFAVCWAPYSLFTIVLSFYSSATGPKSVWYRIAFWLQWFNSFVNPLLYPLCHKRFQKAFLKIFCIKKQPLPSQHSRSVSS

Compound | Ki [nM]
CN[C@@H]1CCN(c2cc(C3CCCC3)nc(N)n2)C1 [Example 4, (R)-4-Cyclopentyl-6-(3-methylamino-pyrrolidin-1-yl)-pyrimidin-2-ylamine] | 1
CNC1CN(c2cc(C3CCCC3)nc(N)n2)CC1O (stereo not drawn) [Example 5, trans-1-(2-Amino-6-cyclopentyl-pyrimidin-4-yl)-4-methylamino-pyrrolidin-3-ol] | 30
Nc1nc(C2CCCC2)cc(N2CC3CCNC3C2)n1 (stereo not drawn) [Example 6, 4-Cyclopentyl-6-(cis-hexahydro-pyrrolo[3,4-b]pyrrol-5-yl)-pyrimidin-2-ylamine] | 6
Nc1nc(C2CCCC2)cc(N2CC3CCCNC3C2)n1 (stereo not drawn) [Example 7, 4-Cyclopentyl-6-(cis-octahydro-pyrrolo[3,4-b]pyridin-6-yl)-pyrimidin-2-ylamine] | 2
CC(C)c1cc(N2CCNCC2)nc(N)n1 [Example 8, 4-Isopropyl-6-piperazin-1-yl-pyrimidin-2-ylamine] | 3
CC(C)c1cc(N2CCC[C@@H](N)C2)nc(N)n1 [Example 9, (R)-4-(3-Amino-piperidin-1-yl)-6-isopropyl-pyrimidin-2-ylamine] | 820
CC(C)c1cc(N2CCC[C@H](N)C2)nc(N)n1 [Example 10, (S)-4-(3-Amino-piperidin-1-yl)-6-isopropyl-pyrimidin-2-ylamine] | 159
CN[C@@H]1CCN(c2cc(C(C)C)nc(N)n2)C1 [Example 11, (R)-4-Isopropyl-6-(3-methylamino-pyrrolidin-1-yl)-pyrimidin-2-ylamine] | 12
CC(C)c1cc(N2CC[C@@H](N)C2)nc(N)n1 [Example 12, (R)-4-(3-Amino-pyrrolidin-1-yl)-6-isopropyl-pyrimidin-2-ylamine] | 18
CNC1CN(c2cc(C(C)C)nc(N)n2)CC1O (stereo not drawn) [Example 13, trans-1-(2-Amino-6-isopropyl-pyrimidin-4-yl)-4-methylamino-pyrrolidin-3-ol] | 631
CC(C)c1cc(N2C[C@@H]3C[C@H]2CN3)nc(N)n1 [Example 14, (S,S)-4-(2,5-Diaza-bicyclo[2.2.1]hept-2-yl)-6-isopropyl-pyrimidin-2-ylamine] | 673
CC(C)c1cc(N2C[C@H]3C[C@@H]2CN3)nc(N)n1 [Example 15, (R,R)-4-(2,5-Diaza-bicyclo[2.2.1]hept-2-yl)-6-isopropyl-pyrimidin-2-ylamine] | 692
CC(C)c1cc(N2CC3CCNC3C2)nc(N)n1 (stereo not drawn) [Example 16, 4-(cis-Hexahydro-pyrrolo[3,4-b]pyrrol-5-yl)-6-isopropyl-pyrimidin-2-ylamine] | 65
CC(C)c1cc(N2C[C@H]3CCN[C@H]3C2)nc(N)n1 [Example 17, (R,R)-4-(Hexahydro-pyrrolo[3,4-b]pyrrol-5-yl)-6-isopropyl-pyrimidin-2-ylamine] | 59
CC(C)c1cc(N2C[C@H]3CN(C)C[C@H]3C2)nc(N)n1 [Example 18, 4-Isopropyl-6-(cis-5-methyl-hexahydro-pyrrolo[3,4-c]pyrrol-2-yl)-pyrimidin-2-ylamine] | 17
CC(C)c1cc(N2CC3CCCNC3C2)nc(N)n1 (stereo not drawn) [Example 19, 4-Isopropyl-6-(cis-octahydro-pyrrolo[3,4-b]pyridin-6-yl)-pyrimidin-2-ylamine] | 8
CC(C)c1cc(N2C[C@H]3CCCN[C@H]3C2)nc(N)n1 [Example 20, (R,R)-4-Isopropyl-6-(cis-octahydro-pyrrolo[3,4-b]pyridin-6-yl)-pyrimidin-2-ylamine] | 18
Cc1cc(N2CCNCC2)nc(N)n1 [Example 21, 4-Methyl-6-piperazin-1-yl-pyrimidin-2-ylamine] | 29
Cc1cc(N2CCN(C)CC2)nc(N)n1 [Example 22, 4-Methyl-6-(4-methyl-piperazin-1-yl)-pyrimidin-2-ylamine] | 18
CN[C@@H]1CCN(c2cc(C)nc(N)n2)C1 [Example 23, (R)-4-Methyl-6-(3-methylamino-pyrrolidin-1-yl)-pyrimidin-2-ylamine] | 77
Cc1cc(N2CC3CCCNC3C2)nc(N)n1 (stereo not drawn) [Example 24, 4-Methyl-6-(cis-octahydro-pyrrolo[3,4-b]pyridin-6-yl)-pyrimidin-2-ylamine] | 49
Cc1nc(N)nc(N2CCNCC2)c1C [Example 25, 4,5-Dimethyl-6-piperazin-1-yl-pyrimidin-2-ylamine] | 286
Cc1nc(N)nc(N2CCN(C)CC2)c1C [Example 26, 4,5-Dimethyl-6-(4-methyl-piperazin-1-yl)-pyrimidin-2-ylamine] | 177
Cc1nc(N)nc(N2CC[C@@H](N)C2)c1C [Example 27, (R)-4-(3-Amino-pyrrolidin-1-yl)-5,6-dimethyl-pyrimidin-2-ylamine] | > 10000

Compound | Ki [nM]
CN[C@@H]1CCN(c2nc(N)nc(C)c2C)C1 [Example 28, (R)-4,5-Dimethyl-6-(3-methylamino-pyrrolidin-1-yl)-pyrimidin-2-ylamine] | 357
Cc1nc(N)nc(N2CC3CCNC3C2)c1C (stereo not drawn) [Example 29, 4-(cis-Hexahydro-pyrrolo[3,4-b]pyrrol-5-yl)-5,6-dimethyl-pyrimidin-2-ylamine] | > 10000
Cc1nc(N)nc(N2C[C@H]3CN(C)C[C@H]3C2)c1C [Example 30, 4,5-Dimethyl-6-(cis-5-methyl-hexahydro-pyrrolo[3,4-c]pyrrol-2-yl)-pyrimidin-2-ylamine] | 530
Cc1nc(N)nc(N2CC3CCCNC3C2)c1C (stereo not drawn) [Example 31, 4,5-Dimethyl-6-(cis-octahydro-pyrrolo[3,4-b]pyridin-6-yl)-pyrimidin-2-ylamine] | 249
Cc1nc(N)nc(N2C[C@@H]3C[C@H]2CN3)c1C [Example 32, (S,S)-4-(2,5-Diaza-bicyclo[2.2.1]hept-2-yl)-5,6-dimethyl-pyrimidin-2-ylamine] | > 10000
CCc1cc(N2CCNCC2)nc(N)n1 [Example 33, 4-Ethyl-6-piperazin-1-yl-pyrimidin-2-ylamine] | 10
CCc1cc(N2CCN(C)CC2)nc(N)n1 [Example 34, 4-Ethyl-6-(4-methyl-piperazin-1-yl)-pyrimidin-2-ylamine] | 6
CCc1cc(N2CC[C@@H](N)C2)nc(N)n1 [Example 35, (R)-4-(3-Amino-pyrrolidin-1-yl)-6-ethyl-pyrimidin-2-ylamine] | 21
CCc1cc(N2CC[C@@H](NC)C2)nc(N)n1 [Example 36, (R)-4-Ethyl-6-(3-methylamino-pyrrolidin-1-yl)-pyrimidin-2-ylamine] | 21
CCc1cc(N2C[C@H]3CCN[C@H]3C2)nc(N)n1 [Example 37, (R,R)-(4-Ethyl-6-hexahydro-pyrrolo[3,4-b]pyrrol-5-yl)-pyrimidin-2-ylamine] | 27
CCc1cc(N2C[C@H]3CNC[C@H]3C2)nc(N)n1 [Example 38, 4-Ethyl-6-(cis-hexahydro-pyrrolo[3,4-c]pyrrol-2-yl)-pyrimidin-2-ylamine] | 559
CCc1cc(N2C[C@H]3CCCN[C@H]3C2)nc(N)n1 [Example 39, (R,R)-(4-Ethyl-6-octahydro-pyrrolo[3,4-b]pyridin-6-yl)-pyrimidin-2-ylamine] | 10
CN1CCN(c2cc(C3CC3)nc(N)n2)CC1 [Example 40, 4-Cyclopropyl-6-(4-methyl-piperazin-1-yl)-pyrimidin-2-ylamine] | 8
CN[C@@H]1CCN(c2cc(C3CC3)nc(N)n2)C1 [Example 41, (R)-(4-Cyclopropyl-6-3-methylamino-pyrrolidin-1-yl)-pyrimidin-2-ylamine] | 28
Nc1nc(C2CC2)cc(N2CC3CCCNC3C2)n1 (stereo not drawn) [Example 42, 4-Cyclopropyl-6-(cis-octahydro-pyrrolo[3,4-b]pyridin-6-yl)-pyrimidin-2-ylamine] | 18
Nc1nc(C2CCC2)cc(N2CCNCC2)n1 [Example 43, 4-Cyclobutyl-6-piperazin-1-yl-pyrimidin-2-ylamine] | 2
CN1CCN(c2cc(C3CCC3)nc(N)n2)CC1 [Example 44, 4-Cyclobutyl-6-(4-methyl-piperazin-1-yl)-pyrimidin-2-ylamine] | 1
Nc1nc(C2CCC2)cc(N2CCC[C@@H](N)C2)n1 [Example 45, (R)-4-(3-Amino-piperidin-1-yl)-6-cyclobutyl-pyrimidin-2-ylamine] | 103
CN[C@@H]1CCN(c2cc(C3CCC3)nc(N)n2)C1 [Example 46, (R)-4-Cyclobutyl-6-(3-methylamino-pyrrolidin-1-yl)-pyrimidin-2-ylamine] | 2
Nc1nc(C2CCC2)cc(N2CC3CCNC3C2)n1 (stereo not drawn) [Example 47, 4-Cyclobutyl-6-(cis-hexahydro-pyrrolo[3,4-b]pyrrol-5-yl)-pyrimidin-2-ylamine] | 11
Nc1nc(C2CCC2)cc(N2C[C@H]3CNC[C@H]3C2)n1 [Example 48, 4-Cyclobutyl-6-(cis-hexahydro-pyrrolo[3,4-c]pyrrol-2-yl)-pyrimidin-2-ylamine] | 328
CN1C[C@@H]2CN(c3cc(C4CCC4)nc(N)n3)C[C@@H]2C1 [Example 49, 4-Cyclobutyl-6-(cis-5-methyl-hexahydro-pyrrolo[3,4-c]pyrrol-2-yl)-pyrimidin-2-ylamine] | 50
Nc1nc(C2CCC2)cc(N2CC3CCCNC3C2)n1 (stereo not drawn) [Example 50, 4-Cyclobutyl-6-(cis-octahydro-pyrrolo[3,4-b]pyridin-6-yl)-pyrimidin-2-ylamine] | 3
Nc1nc(C2CCC2)cc(N2C[C@H]3CCCN[C@H]3C2)n1 [Example 51, (R,R)-(4-Cyclobutyl-6-cis-octahydro-pyrrolo[3,4-b]pyridin-6-yl)-pyrimidin-2-ylamine] | 3
